How the values were obtained:
[1] = molecular target: T1, human vitronectin receptor αvβ3 (Homo sapiens, UniProt P05106+P06756); assay: Kistrin binding assay (αvβ3 ELISA test, K/VnR); conditions: inhibition of binding of kistrin to human vitronectin receptor αvβ3, ELISA
T1 construct: Human vitronectin receptor is obtained from the human placenta according to the method of Pytela et al; from tissue; host or cells: human placenta (alternative: 293 cells co-transfected with αv and β3 DNA)
Source text: The inhibition of the binding of kistrin to human vitronectin receptor (VnR) described below is a test method by which the antagonistic action of the compounds of the invention on the vitronectin receptor αvβ3 can be determined (αvβ3 ELISA Test; the test method is abbreviated as “K/VnR” in the listing of the test results).
Kistrin is purified according to the methods of Dennis et al., as described in Proc. Natl. Acad. Sci. USA 87 (1989) 2471 and Proteins: Structure, Function and Genetics 15 (1993) 312.
Purification of Human Vitronectin Receptor (αvβ3)
Human vitronectin receptor is obtained from the human placenta according to the method of Pytela et al., Methods Enzymol. 144 (1987) 475. Human vitronectin receptor αvβ3 can also be obtained from some cell lines (for example from 293 cells, a human embryonic kidney cell line) which are co-transfected with DNA sequences for both subunits αv and β3 of the vitronectin receptor. The subunits are extracted with octyl glycoside and then chromatographed through concanavalin A, heparin-Sepharose and S-300.
Murine monoclonal antibodies which are specific for the β3 subunits of the vitronectin receptor, are prepared according to the method of Newman et al., Blood, 1985, 227, or by a similar process. The rabbit Fab 2 anti-mouse Fc conjugate to horseradish peroxidase (anti-mouse Fc HRP) was obtained from Pel Freeze (Catalog No. 715 305-1).
The ability of substances to inhibit the binding of kistrin to the vitronectin receptor can be determined using an ELISA test. For this purpose, Nunc 96-well microtiter plates are coated with a solution of kistrin (0.002 mg/ml) according to the method of Dennis et al., as described in Proteins: Structure, Function and Genetics 15 (1993) 312. The plates are then washed twice with PBS/0.05% Tween-20 and blocked by incubating (60 min) with bovine serum albumin (BSA, 0.5%, RIA grade or better) in buffer solution (Tris-HCl (50 mM), NaCl (100 mM), MgCl2 (1 mM), CaCl2 (1 mM), MnCl2 (1 mM), pH 7). Solutions of known inhibitors and of the test substances are prepared in concentrations from 2×10^−12 to 2×10^−6 mol/l in assay buffer (BSA (0.5%, RIA grade or better); Tris-HCl (50 mM); NaCl (100 mM), MgCl2 (1 mM), CaCl2 (1 mM), MnCl2 (1 mM), pH 7). The blocked plates are emptied, and in each case 0.025 ml of this solution which contains a defined concentration (2×10^−12 to 2×10^−6 mol/l) either of a known inhibitor or of a test substance, are added to each well. 0.025 ml of a solution of the vitronectin receptor in assay buffer (0.03 mg/ml) is pipetted into each well of the plate and the plate is incubated at room temperature for 60-180 min on a shaker. In the meantime, a solution (6 ml/plate) of a murine monoclonal antibody specific for the β3 subunit of the vitronectin receptor is prepared in assay buffer (0.0015 mg/ml). A second rabbit antibody (0.001 ml of stock solution/6 ml of the murine monoclonal anti-β3 antibody solution) which is an anti-mouse Fc HRP antibody conjugate is added to this solution, and this mixture of murine anti-β3 antibody and rabbit anti-mouse Fc HRP antibody conjugate is incubated during the time of the receptor-inhibitor incubation. The test plates are washed four times with PBS solution which contains 0.05% Tween-20, and in each case 0.05 ml/well of the antibody mixture is pipetted into each well of the plate and incubated for 60-180 min. The plate is washed four times with PBS/0.05% Tween-20 and then developed with 0.05 ml/well of a PBS solution which contains 0.67 mg/ml of o-phenylenediamine and 0.012% of H2O2 . Alternatively to this, o-phenylenediamine can be employed in a buffer (pH 5) which contains Na3PO4 and citric acid. The color development is stopped using 1 N H2SO4 (0.05 ml/well). The absorption for each well is measured at 492-405 nm and the data are evaluated by standard methods.

[2] = molecular target: 293 cells cotransfected with αv and β3 subunits of the vitronectin receptor αvβ3 (Homo sapiens, UniProt P05106+P06756); assay: Vitronectin/293 cell test (inhibition of binding of 293 cells to human vitronectin); assay type: cell-based; conditions: inhibition of binding of αvβ3-expressing 293 cells to human vitronectin; read-out: Vn/293 cell test IC50
Protocol: 2) Vitronectin/293 Cell Test
In this test the inhibition of binding of 293 cells to human vitronectin (Vn) by the compounds of the invention is determined (the test method is abbreviated as Vn/293 cell test in the listing of the test results).
Purification of Human Vitronectin
Human vitronectin was isolated from human plasma and purified by affinity chromatography according to the method of Yatohgo et al., Cell Structure and Function 23 (1988) 281.
293 cells, a human embryonic kidney cell line, which were cotransfected with DNA sequences for the αv and β3 subunits of the vitronectin receptor αvβ3, were selected for a high rate of expression (>500,000 αvβ3 receptors/cell) according to the FACS method. The selected cells were cultured and sorted again by means of FACS in order to obtain a stable cell line (15 D) with expression rates >1,000,000 copies of αvβ3 per cell.
A Linbro 96-well tissue culture plate with a flat bottom was coated overnight at 4° C. with human vitronectin (0.01 mg/ml, 0.05 ml/well) in phosphate-buffered saline solution (PBS) and then blocked with 0.5% strength BSA (bovine serum albumin). Solutions of the test substances from 10^−10 mol/l to 2×10^−3 mol/l in glucose-containing DMEM medium were prepared and 0.05 ml/well of the solution were added to the plate in each case. The cells which expressed high levels of αvβ3 (for example 15 D) were suspended in glucose-containing DMEM medium and the suspension was adjusted to a content of 25,000 cells/0.05 ml of medium. 0.05 ml of this cell suspension was added to each well and the plate was incubated at 37° C. for 90 min. The plate was washed 3 times with warm PBS in order to remove unbound cells. The bound cells were lyzed in citrate buffer (25 mM, pH 5.0) which contained 0.25% Triton X-100. The hexoseamidase substrate p-nitrophenyl-N-acetyl-β-D-glucosaminide was then added and the plate was incubated at 37° C. for 90 min. The reaction was stopped with a glycine (50 mM)/EDTA (5 mM) buffer (pH 10.4) and the absorption of each well was measured at 405 to 650 nm. The data were analyzed according to standard methods.

[3] = test system: bone resorption by osteoclasts; assay: Pit Assay (osteoclast resorption test); assay type: cell-based; conditions: inhibition of bone resorption
Source text: The inhibition of bone resorption by the compounds of the invention can be determined, for example, with the aid of an osteoclast resorption test (“Pit Assay”), for example analogously to WO-A-95/32710 which is incorporated herein by reference.

Sequence of 293 cells cotransfected with αv and β3 subunits of the vitronectin receptor αvβ3 (P05106 whole entry): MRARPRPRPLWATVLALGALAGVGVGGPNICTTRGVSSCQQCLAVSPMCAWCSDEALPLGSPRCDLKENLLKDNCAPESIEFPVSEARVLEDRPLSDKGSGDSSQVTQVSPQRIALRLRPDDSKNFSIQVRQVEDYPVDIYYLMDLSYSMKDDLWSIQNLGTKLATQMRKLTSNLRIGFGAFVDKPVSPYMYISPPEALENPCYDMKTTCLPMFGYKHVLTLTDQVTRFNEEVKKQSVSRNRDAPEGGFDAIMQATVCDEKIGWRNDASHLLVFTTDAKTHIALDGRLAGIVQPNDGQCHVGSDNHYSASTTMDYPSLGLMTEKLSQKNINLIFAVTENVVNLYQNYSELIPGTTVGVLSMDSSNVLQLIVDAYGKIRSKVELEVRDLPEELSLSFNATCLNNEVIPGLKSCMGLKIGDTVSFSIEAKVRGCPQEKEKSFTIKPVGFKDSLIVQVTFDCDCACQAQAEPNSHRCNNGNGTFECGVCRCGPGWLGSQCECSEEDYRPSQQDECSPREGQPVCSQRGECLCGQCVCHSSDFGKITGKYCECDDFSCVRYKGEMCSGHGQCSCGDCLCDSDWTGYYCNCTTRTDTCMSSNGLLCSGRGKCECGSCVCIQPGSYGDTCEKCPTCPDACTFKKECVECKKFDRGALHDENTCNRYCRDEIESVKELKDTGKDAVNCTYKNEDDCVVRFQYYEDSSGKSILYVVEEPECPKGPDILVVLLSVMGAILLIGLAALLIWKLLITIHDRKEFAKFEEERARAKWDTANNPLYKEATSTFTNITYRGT
Sequence of 293 cells cotransfected with αv and β3 subunits of the vitronectin receptor αvβ3 (P06756 whole entry): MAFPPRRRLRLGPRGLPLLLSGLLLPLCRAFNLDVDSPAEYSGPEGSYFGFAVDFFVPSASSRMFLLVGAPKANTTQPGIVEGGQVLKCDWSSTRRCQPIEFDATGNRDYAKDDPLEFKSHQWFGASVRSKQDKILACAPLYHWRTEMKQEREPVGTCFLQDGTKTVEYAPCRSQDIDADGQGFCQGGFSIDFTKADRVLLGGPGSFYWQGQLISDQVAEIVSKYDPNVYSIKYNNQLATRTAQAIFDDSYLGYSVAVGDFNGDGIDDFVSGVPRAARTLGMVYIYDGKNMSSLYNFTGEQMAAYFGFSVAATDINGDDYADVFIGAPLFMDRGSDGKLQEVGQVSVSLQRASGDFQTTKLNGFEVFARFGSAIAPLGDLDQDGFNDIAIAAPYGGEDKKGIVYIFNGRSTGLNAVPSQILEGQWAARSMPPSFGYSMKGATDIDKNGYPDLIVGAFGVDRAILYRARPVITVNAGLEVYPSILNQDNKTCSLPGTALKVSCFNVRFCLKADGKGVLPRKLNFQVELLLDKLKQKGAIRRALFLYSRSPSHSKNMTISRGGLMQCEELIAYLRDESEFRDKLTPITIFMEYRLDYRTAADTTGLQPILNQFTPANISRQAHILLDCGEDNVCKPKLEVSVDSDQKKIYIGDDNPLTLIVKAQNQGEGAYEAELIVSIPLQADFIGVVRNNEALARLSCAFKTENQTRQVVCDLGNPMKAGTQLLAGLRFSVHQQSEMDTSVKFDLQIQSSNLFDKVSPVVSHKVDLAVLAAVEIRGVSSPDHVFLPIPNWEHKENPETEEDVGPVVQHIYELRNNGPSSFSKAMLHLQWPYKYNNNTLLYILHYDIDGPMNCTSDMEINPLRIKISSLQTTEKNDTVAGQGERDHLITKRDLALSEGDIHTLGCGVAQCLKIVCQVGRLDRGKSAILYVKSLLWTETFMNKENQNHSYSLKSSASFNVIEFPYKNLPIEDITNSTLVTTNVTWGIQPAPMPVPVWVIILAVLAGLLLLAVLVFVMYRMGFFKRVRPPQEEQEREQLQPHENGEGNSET
T1 sequence (P06756 31-889 limits assumed): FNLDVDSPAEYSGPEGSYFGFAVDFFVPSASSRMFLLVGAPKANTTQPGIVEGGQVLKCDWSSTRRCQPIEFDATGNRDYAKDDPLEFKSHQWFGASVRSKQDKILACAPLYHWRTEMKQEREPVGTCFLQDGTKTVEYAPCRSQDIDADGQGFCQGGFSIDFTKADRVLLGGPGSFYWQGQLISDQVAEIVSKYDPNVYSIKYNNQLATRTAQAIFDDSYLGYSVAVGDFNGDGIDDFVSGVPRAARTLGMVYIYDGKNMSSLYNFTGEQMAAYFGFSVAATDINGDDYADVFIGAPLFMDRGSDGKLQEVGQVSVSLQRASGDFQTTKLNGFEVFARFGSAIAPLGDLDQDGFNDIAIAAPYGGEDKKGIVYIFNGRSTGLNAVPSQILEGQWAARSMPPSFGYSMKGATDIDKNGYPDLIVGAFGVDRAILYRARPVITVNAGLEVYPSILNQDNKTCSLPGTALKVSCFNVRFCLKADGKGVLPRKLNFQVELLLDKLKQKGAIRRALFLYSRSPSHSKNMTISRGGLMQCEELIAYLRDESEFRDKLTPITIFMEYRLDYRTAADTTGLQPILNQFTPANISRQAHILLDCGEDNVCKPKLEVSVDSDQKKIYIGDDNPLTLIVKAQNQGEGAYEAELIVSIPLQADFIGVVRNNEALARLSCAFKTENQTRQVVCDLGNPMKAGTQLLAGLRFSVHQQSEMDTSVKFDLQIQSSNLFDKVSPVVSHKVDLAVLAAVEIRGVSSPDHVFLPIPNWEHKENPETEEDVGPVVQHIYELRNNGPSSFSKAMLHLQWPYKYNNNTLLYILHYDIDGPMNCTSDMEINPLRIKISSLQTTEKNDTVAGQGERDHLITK
T1 sequence (P06756 891-1048 partner limits assumed): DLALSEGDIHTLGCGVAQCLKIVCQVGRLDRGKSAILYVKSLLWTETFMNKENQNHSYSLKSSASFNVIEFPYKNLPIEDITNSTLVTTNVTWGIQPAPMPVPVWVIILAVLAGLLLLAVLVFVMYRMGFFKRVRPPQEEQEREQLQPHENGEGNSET
T1 sequence (P05106 27-788): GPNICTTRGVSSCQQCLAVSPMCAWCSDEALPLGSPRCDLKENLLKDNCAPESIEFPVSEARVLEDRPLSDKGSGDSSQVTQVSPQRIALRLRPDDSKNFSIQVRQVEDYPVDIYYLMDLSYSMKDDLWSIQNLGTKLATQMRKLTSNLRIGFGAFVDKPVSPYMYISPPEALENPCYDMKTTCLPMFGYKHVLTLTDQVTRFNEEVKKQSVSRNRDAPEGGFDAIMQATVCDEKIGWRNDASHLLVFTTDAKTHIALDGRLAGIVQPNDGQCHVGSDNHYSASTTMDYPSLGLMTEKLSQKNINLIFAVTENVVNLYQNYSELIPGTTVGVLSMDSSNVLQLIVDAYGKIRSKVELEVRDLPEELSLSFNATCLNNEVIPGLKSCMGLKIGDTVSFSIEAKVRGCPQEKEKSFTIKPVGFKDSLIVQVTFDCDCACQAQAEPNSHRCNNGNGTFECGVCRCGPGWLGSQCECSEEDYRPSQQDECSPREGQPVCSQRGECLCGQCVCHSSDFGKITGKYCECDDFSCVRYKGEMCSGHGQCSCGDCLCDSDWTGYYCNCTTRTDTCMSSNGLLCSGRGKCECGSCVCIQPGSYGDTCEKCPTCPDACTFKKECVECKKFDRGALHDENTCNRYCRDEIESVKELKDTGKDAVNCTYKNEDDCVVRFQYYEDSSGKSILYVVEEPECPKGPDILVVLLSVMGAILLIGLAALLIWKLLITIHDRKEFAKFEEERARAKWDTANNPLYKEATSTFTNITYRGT

IC50 [1] [nM]	IC50 [2] [nM]	IC50 [3] [nM]	SMILES
10	78	–	O=C(N[C@@H](Cn1cnc2c(N3CCC(c4ccc5c(n4)NCCC5)CC3)ncnc21)C(=O)O)OCc1ccccc1 [Example 1, (2S)-2-Benzyloxycarbonylamino-3-(6-(4-(5,6,7,8-tetrahydro-[1,8]naphthyridin-2-yl)-piperidin-1-yl)-purin-9-yl)-propionic acid]
18	115	–	CCCCS(=O)(=O)N[C@@H](Cn1cnc2c(N3CCC(c4ccc5c(n4)NCCC5)CC3)ncnc21)C(=O)O [Example 6, (2S)-2-(Butane-1-sulfonylamino)-3-(6-(4-(5,6,7,8-tetrahydro-[1,8]naphthyridin-2-yl)-piperidin-1-yl)-purin-9-yl)-propionic acid]
4.8	23	–	O=C(O)[C@H](Cn1cnc2c(N3CCC(c4ccc5c(n4)NCCC5)CC3)ncnc21)NS(=O)(=O)c1ccccc1 [Example 2, (2S)-2-Benzenesulfonylamino-3-(6-(4-(5,6,7,8-tetrahydro-[1,8]naphthyridin-2-yl)-piperidin-1-yl)-purin-9-yl)-propionic acid]
5	22	–	O=C(O)[C@H](Cn1cnc2c(N3CCC(c4ccc5c(n4)NCCC5)CC3)ncnc21)NS(=O)(=O)c1ccc(C(F)(F)F)cc1 [Example 5, (2S)-3-(6-(4-(5,6,7,8-Tetrahydro-[1,8]naphthyridin-2-yl)-piperidin-1-yl)-purin-9-yl)-2-(4-trifluoromethylbenzenesulfonylamino)-propionic acid]
5.1	15	0.3	O=C(O)[C@H](Cn1cnc2c(N3CCC(c4ccc5c(n4)NCCC5)CC3)ncnc21)NS(=O)(=O)c1ccc(Cl)cc1 [Example 3, (2S)-2-(4-Chlorobenzenesulfonylamino)-3-(6-(4-(5,6,7,8-tetrahydro-[1,8]naphthyridin-2-yl)-piperidin-1-yl)-purin-9-yl)-propionic acid]
6.4	24	< 10	O=C(O)[C@H](Cn1cnc2c(N3CCC(c4ccc5c(n4)NCCC5)CC3)ncnc21)NS(=O)(=O)c1cccc2ccccc12 [Example 4, (2S)-2-(Naphthalene-1-sulfonylamino)-3-(6-(4-(5,6,7,8-tetrahydro-[1,8]naphthyridin-2-yl)-piperidin-1-yl)-purin-9-yl)-propionic acid]

Source: patent publication US6743800B1, “Naphthyridine derivatives, processes for their preparation, their use and pharmaceutical compositions comprising them” (Aventis Pharma Deutschland GmbH, priority 1999, dated 2004)
